Molecules are shown by their SMILES. Activity calls are given as the source filed them. The rule behind the calls is not given here. Bounds are passed on as bounds.

This note sets out measurements from PubChem BioAssay AID1117349.

This test has as its system HeLa cells, increased 2N DNA content (cell cycle). As to the kind of experiment: rise of 2N DNA cells, HeLa – IC50, dose response (AID 1117349).
On to `CCCCCCCCCCCC(=O)[O][Sn]([CH2]CCC)([CH2]CCC)[O]C(=O)CCCCCCCCCCC`, for which the IC50 was > 10 µM (inactive). `CCCCCCCCCCCCCC[N+](C)(C)C`: the IC50 is > 10 µM (inactive). For `C[n+]1c2cc(N)ccc2cc2ccc(N)cc21` (tested in a mixture with another compound), the IC50 was 3.39 µM. In the case of `Cc1ccc([N+](=O)[O-])[c]2c1[O][Hg]2` it was > 10 µM (inactive).

The IC50 is the concentration that inhibits the measured activity by half.
